Patent US20250215030A1, “STAT MODULATORS AND USES THEREOF” (Recludix Pharma, Inc., priority 2022, published 2025)

Columns and labels:
[1] = target: T1, Recombinant STAT6 protein (STAT6(W123-T658)) (Homo sapiens, UniProt P42226); assay: STAT6 Fluorescence Polarization (FP) Assay; assay type: binding; settings: STAT6(W123-T658) 250 nM, probe 5-FAM-ApYKPFQDLI-NH2 2 nM, 45-minute incubation
T1 construct: STAT6(W123-T658)
T1 sequence (P42226 123-658): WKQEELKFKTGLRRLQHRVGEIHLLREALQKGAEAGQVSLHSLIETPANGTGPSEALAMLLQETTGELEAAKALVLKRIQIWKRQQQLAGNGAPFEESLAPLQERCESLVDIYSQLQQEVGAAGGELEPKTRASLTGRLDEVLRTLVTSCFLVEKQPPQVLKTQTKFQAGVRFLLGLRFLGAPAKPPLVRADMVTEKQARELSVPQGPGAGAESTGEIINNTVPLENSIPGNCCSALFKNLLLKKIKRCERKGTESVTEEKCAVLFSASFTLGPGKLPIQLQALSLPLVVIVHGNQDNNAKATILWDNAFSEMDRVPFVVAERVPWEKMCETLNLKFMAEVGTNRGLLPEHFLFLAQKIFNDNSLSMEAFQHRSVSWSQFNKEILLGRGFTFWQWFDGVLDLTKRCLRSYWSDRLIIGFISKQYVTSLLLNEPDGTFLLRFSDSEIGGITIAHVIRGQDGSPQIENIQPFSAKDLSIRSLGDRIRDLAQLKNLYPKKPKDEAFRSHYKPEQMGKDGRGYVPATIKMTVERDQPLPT
Method in brief: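 Competitive displacement of a fluorescent phosphotyrosine peptide (2 nM) from recombinant STAT6 W123-T658 (250 nM), 45 min at room temperature in 10 mM HEPES pH 7.4, 50 mM NaCl, 2 mM DTT. mP fitted against log compound for IC50, grouped A (≤300 nM) to D (>30 μM).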

[2] = target: T2, Recombinant STAT3 protein (STAT3(G127-I722)) (Homo sapiens, UniProt P40763); assay: STAT3 Fluorescence Polarization (FP) Assay; assay type: binding; settings: STAT3(G127-I722) 25 nM, probe 5-FAM-GpYLPQTV-NH2 2 nM, 45-minute incubation
T2 construct: STAT3(G127-I722)
T2 sequence (P40763 127-722, species assumed): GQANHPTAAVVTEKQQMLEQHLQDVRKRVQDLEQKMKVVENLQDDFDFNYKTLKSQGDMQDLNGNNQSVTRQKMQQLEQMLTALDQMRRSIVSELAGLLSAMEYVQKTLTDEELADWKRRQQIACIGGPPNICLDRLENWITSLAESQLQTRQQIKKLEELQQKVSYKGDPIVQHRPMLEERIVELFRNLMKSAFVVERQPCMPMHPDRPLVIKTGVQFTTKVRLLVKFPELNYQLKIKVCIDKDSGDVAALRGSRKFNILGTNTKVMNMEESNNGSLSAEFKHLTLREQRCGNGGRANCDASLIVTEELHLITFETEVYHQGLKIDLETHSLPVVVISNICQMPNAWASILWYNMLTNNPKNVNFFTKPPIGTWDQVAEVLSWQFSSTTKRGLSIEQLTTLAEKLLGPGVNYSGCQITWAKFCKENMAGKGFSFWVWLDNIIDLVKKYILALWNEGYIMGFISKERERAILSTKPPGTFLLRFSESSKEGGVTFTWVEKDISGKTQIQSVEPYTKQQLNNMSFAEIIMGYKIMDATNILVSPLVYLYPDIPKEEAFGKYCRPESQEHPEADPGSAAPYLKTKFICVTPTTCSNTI
Method in brief: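 Serially diluted compounds (1% DMSO) were mixed with 2 nM fluorescent phosphotyrosine peptide and 25 nM STAT3 construct G127-I722, pH 7.4, incubated 45 min at room temperature. IC50 values from fitted polarization curves are reported as categories A (≤100 nM), B, C, D (>10 μM).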

Row | SMILES | IC50 [1] [µM] | IC50 [2] [nM]
1 | CC(=O)N1CC2C1CCN2C(=O)[C@@H]1CC[C@@H]2C[C@H]3C[C@H]3C[C@H](NC(=O)c3cc4cc(CP(=O)(O)O)ccc4s3)C(=O)N21 (stereo partly drawn) [Example 260, ((2-(((3S,6S,7aS,8aR,9aR)-3-(6-acetyl-2,6-diazabicyclo[3.2.0]heptane-2-carbonyl)-5-oxodecahydro-1H-cyclopropa[d]pyrrolo[1,2-a]azocin-6-yl)carbamoyl)benzo[b]thiophen-5-yl)methyl)phosphonic acid] | > 30 | 1000 to 10000
2 | COc1ccncc1C1CN(C(=O)[C@@H]2CC[C@@H]3C[C@H]4C[C@H]4C[C@H](NC(=O)c4cc5cc(CP(=O)(O)O)ccc5s4)C(=O)N32)C1 [Example 265, ((2-(((3S,6S,7aS,8aR,9aR)-3-(3-(4-methoxypyridin-3-yl)azetidine-1-carbonyl)-5-oxodecahydro-1H-cyclopropa[d]pyrrolo[1,2-a]azocin-6-yl)carbamoyl)benzo[b]thiophen-5-yl)methyl)phosphonic acid] | > 30 | < 100
3 | CC(=O)N1CCC2C1CN2C(=O)[C@@H]1CC[C@@H]2C[C@H]3C[C@H]3C[C@H](NC(=O)c3cc4cc(CP(=O)(O)O)ccc4s3)C(=O)N21 (stereo partly drawn) [Example 271, ((2-(((3S,6S,7aS,8aR,9aR)-3-(2-acetyl-2,6-diazabicyclo[3.2.0]heptane-6-carbonyl)-5-oxodecahydro-1H-cyclopropa[d]pyrrolo[1,2-a]azocin-6-yl)carbamoyl)benzo[b]thiophen-5-yl)methyl)phosphonic acid] | > 30 | 1000 to 10000
4 | CC(=O)N1C[C@H](NC(=O)[C@@H]2CC[C@@H]3C[C@]4(C)C[C@@H]4C[C@H](NC(=O)c4cc5cc(CP(=O)(O)O)ccc5s4)C(=O)N32)[C@@H](F)C1 [Example 273, ((2-(((3S,6S,7aR,8aS,9aR)-3-(((3S,4S)-1-acetyl-4-fluoropyrrolidin-3-yl)carbamoyl)-8a-methyl-5-oxodecahydro-1H-cyclopropa[d]pyrrolo[1,2-a]azocin-6-yl)carbamoyl)benzo[b]thiophen-5-yl)methyl)phosphonic acid] | 3 to 30 | 1000 to 10000
5 | O=C(N[C@H]1C[C@@H]2C[C@@H]2C[C@H]2CC[C@@H](C(=O)N3CC4C3CCN4c3cccnc3)N2C1=O)c1cc2cc(CP(=O)(O)O)ccc2s1 (stereo partly drawn) [Example 275, ((2-(((3S,6S,7aS,8aR,9aR)-5-oxo-3-(2-(pyridin-3-yl)-2,6-diazabicyclo[3.2.0]heptane-6-carbonyl)decahydro-1H-cyclopropa[d]pyrrolo[1,2-a]azocin-6-yl)carbamoyl)benzo[b]thiophen-5-yl)methyl)phosphonic acid] | 3 to 30 | 100 to 1000
6 | O=C(N[C@H]1C[C@@H]2C[C@@H]2C[C@H]2CC[C@@H](C(=O)N[C@H]3CNC[C@@H]3F)N2C1=O)c1cc2cc(CP(=O)(O)O)ccc2s1 [Example 276, ((2-(((3S,6S,7aS,8aR,9aR)-3-(((3S,4S)-4-fluoropyrrolidin-3-yl)carbamoyl)-5-oxodecahydro-1H-cyclopropa[d]pyrrolo[1,2-a]azocin-6-yl)carbamoyl)benzo[b]thiophen-5-yl)methyl)phosphonic acid] | > 30 | 1000 to 10000
7 | Cc1ccncc1C1CN(C(=O)[C@@H]2CC[C@@H]3C[C@H]4C[C@H]4C[C@H](NC(=O)c4cc5cc(CP(=O)(O)O)ccc5s4)C(=O)N32)C1 [Example 277, ((2-(((3S,6S,7aS,8aR,9aR)-3-(3-(4-methylpyridin-3-yl)azetidine-1-carbonyl)-5-oxodecahydro-1H-cyclopropa[d]pyrrolo[1,2-a]azocin-6-yl)carbamoyl)benzo[b]thiophen-5-yl)methyl)phosphonic acid] | > 30 | 100 to 1000
8 | Cc1ccncc1N1C[C@H](NC(=O)[C@@H]2CC[C@@H]3C[C@H]4C[C@H]4C[C@H](NC(=O)c4cc5cc(CP(=O)(O)O)ccc5s4)C(=O)N32)[C@@H](F)C1 [Example 278, ((2-(((3S,6S,7aS,8aR,9aR)-3-(((3S,4S)-4-fluoro-1-(4-methylpyridin-3-yl)pyrrolidin-3-yl)carbamoyl)-5-oxodecahydro-1H-cyclopropa[d]pyrrolo[1,2-a]azocin-6-yl)carbamoyl)benzo[b]thiophen-5-yl)methyl)phosphonic acid] | > 30 | 100 to 1000
9 | O=C(N[C@H]1C[C@@H]2C[C@@H]2C[C@H]2CC[C@@H](C(=O)N[C@H]3CN(c4cncnc4)C[C@@H]3F)N2C1=O)c1cc2cc(CP(=O)(O)O)ccc2s1 [Example 279, ((2-(((3S,6S,7aS,8aR,9aR)-3-(((3S,4S)-4-fluoro-1-(pyrimidin-5-yl)pyrrolidin-3-yl)carbamoyl)-5-oxodecahydro-1H-cyclopropa[d]pyrrolo[1,2-a]azocin-6-yl)carbamoyl)benzo[b]thiophen-5-yl)methyl)phosphonic acid] | > 30 | > 10000

Now from value to compound:

Row | IC50 [1] [µM] | IC50 [2] [nM] | SMILES
10 | 3 to 30 | 100 to 1000 | O=C(N[C@H]1C[C@@H]2C[C@@H]2C[C@H]2CC[C@@H](C(=O)N3CCC4C3CN4c3cccnc3)N2C1=O)c1cc2cc(CP(=O)(O)O)ccc2s1 (stereo partly drawn) [Example 261, ((2-(((3S,6S,7aS,8aR,9aR)-5-oxo-3-(6-(pyridin-3-yl)-2,6-diazabicyclo[3.2.0]heptane-2-carbonyl)decahydro-1H-cyclopropa[d]pyrrolo[1,2-a]azocin-6-yl)carbamoyl)benzo[b]thiophen-5-yl)methyl)phosphonic acid]
11 | 0.3 to 3 | < 100 | O=C(N[C@H]1C[C@@H]2C[C@@H]2C[C@H]2CC[C@@H](C(=O)N3CC(c4cnccc4F)C3)N2C1=O)c1cc2cc(C(F)P(=O)(O)O)ccc2s1 (stereo partly drawn) [Example 262, (fluoro(2-(((3S,6S,7aS,8aR,9aR)-3-(3-(4-fluoropyridin-3-yl)azetidine-1-carbonyl)-5-oxodecahydro-1H-cyclopropa[d]pyrrolo[1,2-a]azocin-6-yl)carbamoyl)benzo[b]thiophen-5-yl)methyl)phosphonic acid]
12 | 3 to 30 | < 100 | CCc1ccncc1C1CN(C(=O)[C@@H]2CC[C@@H]3C[C@H]4C[C@H]4C[C@H](NC(=O)c4cc5cc(C(F)P(=O)(O)O)ccc5s4)C(=O)N32)C1 (stereo partly drawn) [Example 266, ((2-(((3S,6S,7aS,8aR,9aR)-3-(3-(4-ethylpyridin-3-yl)azetidine-1-carbonyl)-5-oxodecahydro-1H-cyclopropa[d]pyrrolo[1,2-a]azocin-6-yl)carbamoyl)benzo[b]thiophen-5-yl)fluoromethyl)phosphonic acid]
13 | 0.3 to 3 | < 100 | O=C(N[C@H]1C[C@H]2C[C@H]2C[C@H]2CC[C@@H](C(=O)N[C@H]3CN(c4cccnc4)C[C@@H]3F)N2C1=O)c1cc2cc(C(F)P(=O)(O)O)ccc2s1 (stereo partly drawn) [Example 267, (fluoro(2-(((3S,6S,7aR,8aS,9aR)-3-(((3S,4S)-4-fluoro-1-(pyridin-3-yl)pyrrolidin-3-yl)carbamoyl)-5-oxodecahydro-1H-cyclopropa[d]pyrrolo[1,2-a]azocin-6-yl)carbamoyl)benzo[b]thiophen-5-yl)methyl)phosphonic acid]
14 | 0.3 to 3 | < 100 | CC(=O)N1CCC2C1CN2C(=O)[C@@H]1CC[C@@H]2C[C@H]3C[C@H]3C[C@H](NC(=O)c3cc4cc(C(F)(F)P(=O)(O)O)ccc4s3)C(=O)N21 (stereo partly drawn) [Example 270, ((2-(((3S,6S,7aS,8aR,9aR)-3-(2-acetyl-2,6-diazabicyclo[3.2.0]heptane-6-carbonyl)-5-oxodecahydro-1H-cyclopropa[d]pyrrolo[1,2-a]azocin-6-yl)carbamoyl)benzo[b]thiophen-5-yl)difluoromethyl)phosphonic acid]
15 | 3 to 30 | < 100 | COc1ccncc1C1CN(C(=O)[C@@H]2CC[C@@H]3C[C@H]4C[C@H]4C[C@H](NC(=O)c4cc5cc(C(F)P(=O)(O)O)ccc5s4)C(=O)N32)C1 (stereo partly drawn) [Example 272, (fluoro(2-(((3S,6S,7aS,8aR,9aR)-3-(3-(4-methoxypyridin-3-yl)azetidine-1-carbonyl)-5-oxodecahydro-1H-cyclopropa[d]pyrrolo[1,2-a]azocin-6-yl)carbamoyl)benzo[b]thiophen-5-yl)methyl)phosphonic acid]
16 | 0.3 to 3 | < 100 | O=C(N[C@H]1C[C@@H]2C[C@@H]2C[C@H]2CC[C@@H](C(=O)N3CC4C3CCN4c3cccnc3)N2C1=O)c1cc2cc(C(F)(F)P(=O)(O)O)ccc2s1 (stereo partly drawn) [Example 274, (difluoro(2-(((3S,6S,7aS,8aR,9aR)-5-oxo-3-(2-(pyridin-3-yl)-2,6-diazabicyclo[3.2.0]heptane-6-carbonyl)decahydro-1H-cyclopropa[d]pyrrolo[1,2-a]azocin-6-yl)carbamoyl)benzo[b]thiophen-5-yl)methyl)phosphonic acid]
